The values below are quoted from earlier work in patent US20220248734A1, “NUTRITIONAL HEALTH SUPPLEMENTS” (MAYO FOUNDATION FOR MEDICAL EDUCATION AND RESEARCH, priority 2019, published 2022).

SMILES strings stand for the structures.

The conditions of the data set: NAC received within 24 hours of head injury from a blast.

For the compound `CC(=O)N[C@@H](CS)C(=O)O` [NAC, N-acetyl cysteine], the side effects result is given as “no reported side effects” and the symptom resolution entry is reported as “significantly increases symptom resolution”.
